Reference: patent US9546151B2, “VMAT inhibitory compounds” (Oregon Health & Science University, priority 2014, dated 2017)
Counter-ions that a name gives are not always drawn.

Assays:
VMAT2 [1] = molecular target: T1, VMAT2 (Homo sapiens, UniProt Q05940); experiment: hVMAT2 [3H]DTBZ ([3H]DHTB) binding assay; design: expressed in transfected cells; host or cells: HEK (human embryonic kidney) cells; conditions: cells printed in μM under a head in nM; HEK-hVMAT2 membranes
Procedure: (§1) Membrane preparation for binding, uptake and release assays using HEK-hVMAT2 cells: Human embryonic kidney cells expressing the human vesicular monoamine transporter 2 (HEK-hVMAT2) were used. HEK-hVMAT2 cells were grown until confluent. The media was removed from plates, solution A [sucrose (0.32 M) with protease inhibitors] was added to the plate, and cells were scraped from plate. Cells were homogenized with 12 strokes of a glass/glass homogenizer. The homogenate was centrifuged at 800×g for 10 min. The supernatant was removed and saved, and the pellet was resuspended, homogenized and centrifuged as above. The supernatants were combined and centrifuged at 10,000×g for 20 min. The pellet was resuspended in solution A (0.75 ml). The membranes were osmotically shocked by addition of 2.625 ml ice cold water and homogenized by 5 strokes of a glass/Teflon homogenizer. The osmolarity was reestablished with addition of Tris (338 μl, 0.25M, pH 7.4 at 4° C.), sodium potassium tartrate (338 μl, 1.0 M), and MgSO4 (4 μl, 0.9M). The homogenate was centrifuged at 20,000×g for 20 min.
Binding was terminated by filtration over Whatman GF/C filters using a Tomtec 96-well cell harvester. Filters were washed for six seconds with ice-cold saline. Scintillation fluid was added to each square and radioactivity remaining on the filters was determined using a Wallac μ- or beta-plate reader. Specific binding was defined as the difference in binding observed in the presence and absence of Ro4-1284 (10 μM, generously supplied by Hoffman LaRoche). Three or more independent competition experiments were conducted with duplicate determinations.

VMAT2 [2] = molecular target: T1, VMAT2; experiment: hVMAT2 5HT Uptake; format: biochemical; design: expressed in transfected cells; host or cells: HEK (human embryonic kidney) cells; conditions: [^3H]5HT uptake, HEK-hVMAT2 preparation; read-out: hVMAT2 5HT Uptake IC50 (nM) ± SEM
Procedure: as §1

T1 sequence (Q05940 whole entry): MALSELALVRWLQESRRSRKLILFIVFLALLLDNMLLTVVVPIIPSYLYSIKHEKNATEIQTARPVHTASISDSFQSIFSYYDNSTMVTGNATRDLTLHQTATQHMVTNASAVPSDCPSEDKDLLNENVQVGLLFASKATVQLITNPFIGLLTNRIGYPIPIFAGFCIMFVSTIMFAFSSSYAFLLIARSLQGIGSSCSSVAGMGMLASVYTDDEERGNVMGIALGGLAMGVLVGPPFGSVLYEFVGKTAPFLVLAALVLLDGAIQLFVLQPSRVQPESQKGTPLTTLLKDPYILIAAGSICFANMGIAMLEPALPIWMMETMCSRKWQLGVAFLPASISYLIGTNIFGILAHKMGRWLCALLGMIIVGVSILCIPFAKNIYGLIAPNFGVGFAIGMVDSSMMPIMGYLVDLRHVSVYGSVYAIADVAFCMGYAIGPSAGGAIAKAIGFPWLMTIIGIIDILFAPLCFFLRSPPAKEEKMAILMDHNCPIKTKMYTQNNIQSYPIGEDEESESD

Row | melting point | Ki (VMAT2 [1]) | IC50 (VMAT2 [2]) | Compound
1 | 153 to 154 °C | – | – | CCOC(=O)[C@H]1CN(CCn2c(=O)[nH]c3ccccc3c2=O)CC[C@H]1c1ccc(OC)cc1 (racemic) (as salt: HCl) [Compound 5r, (±)-syn-Ethyl 1-(2-(2,4-dioxo-1,2-dihydroquinazolin-3(4H),-yl)ethyl)-4-(4-methoxyphenyl) piperidine-3-carboxylate]
2 | 145 to 146 °C | – | – | CCOC(=O)[C@H]1CN(CCn2c(=O)[nH]c3ccccc3c2=O)CC[C@H]1c1ccc(CC)cc1 (racemic) (as salt: HCl) [Compound 5t, (±)-syn-Ethyl 1-(2-(2,4-dioxo-1,2-dihydroquinazolin-3(4H),-yl)ethyl)-4-(4-ethylphenyl) piperidine-3-carboxylate]
3 | 191.5 to 193 °C | – | – | COC(=O)[C@H]1CN(CCn2c(=O)[nH]c3ccccc3c2=O)CC[C@H]1c1ccc(F)cc1 (racemic) (as salt: HCl) [Compound 10a, (±)-syn-Methyl 1-(2-(2,4-dioxo-1,2-dihydroquinazolin-3(4H),-yl)ethyl)-4-(4-fluorophenyl) piperidine-3-carboxylate]
4 | 157.5 to 159 °C | – | – | CC(C)OC(=O)[C@H]1CN(CCn2c(=O)[nH]c3ccccc3c2=O)CC[C@H]1c1ccc(F)cc1 (racemic) (as salt: HCl) [Compound 10b, (±)-syn-Isopropyl 1-(2-(2,4-dioxo-1,2-dihydroquinazolin-3(4H),-yl)ethyl)-4-(4-fluorophenyl)piperidine-3-carboxylate]
5 | 170.6 to 171.4 °C | > 10 µM | 63 ± 10 nM | CCOC(=O)[C@@H]1CN(CCn2c(=O)[nH]c3ccccc3c2=O)CC[C@@H]1c1cccc(F)c1 (racemic) [Compound 5e]
6 | 194.8 to 196.1 °C | > 10 µM | 49 ± 1 nM | CCOC(=O)[C@@H]1CN(CCn2c(=O)[nH]c3ccccc3c2=O)CC[C@@H]1c1ccc(Cl)cc1 (racemic) [Compound 5oo, (±) syn-ethyl 4-(4-chlorophenyl)-1-(2-(2,4-dioxo-1,2-dihydroquinazolin-3(4H)-yl)ethyl)piperidine-3-carboxylate]
7 | 263 to 264 °C | – | – | O=c1[nH]c2ccccc2c(=O)n1CCN1CCC(c2ccc(F)cc2)CC1 [Compound 16, 3-(2-(4-(4-fluorophenyl)piperidin-1-yl)ethyl)quinazoline-2,4(1H,3H)-dione]

Second part, the compound before the results:

Row | Compound | melting point | Ki (VMAT2 [1]) | IC50 (VMAT2 [2])
8 | CCOC(=O)[C@H]1CN(CCn2c(=O)[nH]c3ccccc3c2=O)CC[C@H]1c1ccc(C(C)C)cc1 (racemic) (as salt: HCl) [Compound 5u, (±)-syn-Ethyl 1-(2-(2,4-dioxo-1,2-dihydroquinazolin-3(4H),-yl)ethyl)-4-(4-isopropylphenyl) piperidine-3-carboxylate] | 153 to 154 °C | – | –
9 | CCOC(=O)[C@H]1CN(CCn2c(=O)[nH]c3ccccc3c2=O)CC[C@H]1CCc1ccccc1 (racemic) (as salt: HCl) [Compound 5v, (±)-syn-Ethyl 1-(2-(2,4-dioxo-1,2-dihydroquinazolin-3(4H)-yl)ethyl)-4-phenethylpiperidine-3-carboxylate] | 140 to 141 °C | – | –
10 | CCOC(=O)[C@H]1CN(CCn2c(=O)[nH]c3ccccc3c2=O)CC[C@H]1c1cccc(C)c1 (racemic) (as salt: HCl) [Compound 5y, (±)-syn-Ethyl 1-(2-(2,4-dioxo-1,2-dihydroquinazolin-3(4H),-yl)ethyl)-4-(m-tolyl)piperidine-3-carboxylate] | 148.5 to 150 °C | – | –
11 | CCOC(=O)[C@H]1CN(CCn2c(=O)[nH]c3ccccc3c2=O)CC[C@H]1c1ccccc1C (racemic) (as salt: HCl) [Compound 5z, (±)-syn-Ethyl 1-(2-(2,4-dioxo-1,2-dihydroquinazolin-3(4H),-yl)ethyl)-4-(o-tolyl)piperidine-3-carboxylate] | 174 to 175 °C | – | –
12 | CCOC(=O)[C@H]1CN(CCN2C(=O)c3ccccc3C2=O)CC[C@H]1c1ccc(F)cc1 (racemic) (as salt: HCl) [Example 144, (±)-syn-Ethyl 1-(2-(1,3-dioxoisoindolin-2-yl)ethyl)-4-(4-fluorophenyl)piperidine-3-carboxylate] | 104.5 to 105.5 °C | – | –
13 | CCOC(=O)[C@@H]1CN(CCn2c(=O)[nH]c3ccccc3c2=O)CC[C@@H]1c1cccc(Cl)c1 (racemic) [Compound 5pp, (±) syn-ethyl 4-(3-chlorophenyl)-1-(2-(2,4-dioxo-1,2-dihydroquinazolin-3(4H)-yl)ethyl)piperidine-3-carboxylate] | 161.8 to 162.9 °C | > 9 µM | 34 ± 8 nM
14 | CCOC(=O)[C@@H]1CN(CCn2c(=O)[nH]c3ccccc3c2=O)CC[C@@H]1c1ccc(F)c(F)c1 (racemic) [Compound 5ss, (±)-syn-Ethyl 4-(3,4-difluorophenyl)-1-(2-(2,4-dioxo-1,2-dihydroquinazolin-3(4H)-yl)ethyl)piperidine-3-carboxylate] | 196.6 to 198.4 °C | > 10 µM | 100 ± 19 nM
15 | CCOC(=O)[C@@H]1CN(CCn2c(=O)[nH]c3ccccc3c2=O)CC[C@@H]1c1ccc([N+](=O)[O-])cc1 (racemic) [Compound 5tt, (±)-syn-Ethyl 4-(4-nitrophenyl)-1-(2-(2,4-dioxo-1,2-dihydroquinazolin-3(4H)-yl)ethyl)piperidine-3-carboxylate] | 216 to 217.4 °C | > 10 µM | 758 ± 165 nM
16 | CCOC(=O)[C@H]1CN(CCn2c(=O)[nH]c3ccccc3c2=O)CC[C@H]1c1ccccc1F (racemic) [Compound 5x, (±)-syn-Ethyl 1-(2-(2,4-dioxo-1,2-dihydroquinazolin-3(4H)-yl)ethyl)-4-(2-fluorophenyl)piperidine-3-carboxylate] | 182.8 to 183.6 °C | > 10 µM | 28 ± 12 nM
17 | CCOC(=O)[C@@H]1CN(CCn2c(=O)c3ccccc3n(C)c2=O)CC[C@@H]1c1ccc(F)cc1 (racemic) [Compound 6a, (±) syn-ethyl 4-(4-fluorophenyl)-1-(2-(1-methyl-2,4-dioxo-1,2-dihydroquinazolin-3(4H)-yl)ethyl)piperidine-3-carboxylate] | 131.1 to 133 °C | – | –
18 | CCCn1c(=O)n(CCN2CC[C@H](c3ccc(F)cc3)[C@H](C(=O)OCC)C2)c(=O)c2ccccc21 (racemic) [Compound 6b, (±) syn-ethyl 1-(2-(2,4-dioxo-1-propyl-1,2-dihydroquinazolin-3(4H)-yl)ethyl)-4-(4-fluorophenyl)piperidine-3-carboxylate] | 96.8 to 97.7 °C | – | –
19 | CCOC(=O)[C@@H]1CN(CCn2c(=O)c3ccccc3n(Cc3ccccc3)c2=O)CC[C@@H]1c1ccc(F)cc1 (racemic) [Compound 6c, (±) syn-ethyl 1-(2-(1-benzyl-2,4-dioxo-1,2-dihydroquinazolin-3(4H)-yl)ethyl)-4-(4-fluorophenyl)piperidine-3-carboxylate] | 134.9 to 136.4 °C | > 7 µM | 270 ± 53 nM
20 | CCOC(=O)[C@@H]1CN(CCn2c(=O)[nH]c3sccc3c2=O)CC[C@@H]1c1ccc(F)cc1 (racemic) [Compound 7a, (±) syn-ethyl 1-(2-(2,4-dioxo-1,2-dihydrothieno[2,3-d]pyrimidin-3(4H)-yl)ethyl)-4-(4-fluorophenyl)piperidine-3-carboxylate] | 198.8 to 201.4 °C | > 10 µM | 133 ± 20 nM
